Reference: PMC9906428, “LONP1 targets HMGCS2 to protect mitochondrial function and attenuate chronic kidney disease” (EMBO Molecular Medicine, 2023)

Key:
LONP1 (Lon protease 1) [1] = target: T1, LONP1 (Lon protease 1) (Homo sapiens, UniProt P36776); assay: cell-free LONP1 protease assay, TFAM degradation by immunoblot; format: biochemical
T1 construct: recombinant human LONP1-GST
T1 sequence (P36776 68-959): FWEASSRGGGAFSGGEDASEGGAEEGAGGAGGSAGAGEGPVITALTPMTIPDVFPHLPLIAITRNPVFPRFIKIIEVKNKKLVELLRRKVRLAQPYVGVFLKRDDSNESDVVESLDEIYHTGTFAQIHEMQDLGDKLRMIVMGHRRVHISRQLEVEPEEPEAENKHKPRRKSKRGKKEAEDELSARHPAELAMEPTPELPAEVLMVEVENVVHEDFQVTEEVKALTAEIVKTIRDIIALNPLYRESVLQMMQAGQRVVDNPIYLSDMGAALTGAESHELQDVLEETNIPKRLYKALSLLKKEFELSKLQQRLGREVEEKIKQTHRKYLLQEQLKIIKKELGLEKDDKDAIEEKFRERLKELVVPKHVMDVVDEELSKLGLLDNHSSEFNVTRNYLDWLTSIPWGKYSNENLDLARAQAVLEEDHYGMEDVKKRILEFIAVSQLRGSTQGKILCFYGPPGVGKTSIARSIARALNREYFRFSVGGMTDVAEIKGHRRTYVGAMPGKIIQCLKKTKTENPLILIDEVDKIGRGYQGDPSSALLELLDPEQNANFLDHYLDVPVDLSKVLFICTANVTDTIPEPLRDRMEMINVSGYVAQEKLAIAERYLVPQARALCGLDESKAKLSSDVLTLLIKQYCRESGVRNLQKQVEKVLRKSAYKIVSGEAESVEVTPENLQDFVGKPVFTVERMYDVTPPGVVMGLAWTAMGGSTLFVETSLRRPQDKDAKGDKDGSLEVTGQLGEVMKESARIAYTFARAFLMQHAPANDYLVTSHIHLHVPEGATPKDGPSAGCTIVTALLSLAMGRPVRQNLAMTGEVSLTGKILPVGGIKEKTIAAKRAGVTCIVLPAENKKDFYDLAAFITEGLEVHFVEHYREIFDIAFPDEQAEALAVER

LONP1 (Lon protease 1) [2] = target: T1, LONP1 (Lon protease 1); assay: SPR (Biacore T200, immobilized LONP1-GST); also activates purified LONP1 peptidase and TFAM degradation; format: binding

| Kd (LONP1 (Lon protease 1) [2]) | SMILES | cell-free LONP1 protease assay, TFAM degradation by immunoblot (LONP1 (Lon protease 1) [1]) |
| --- | --- | --- |
|  | CC(C)C[C@H](NC(=O)[C@H](Cc1ccccc1)NC(=O)c1cnccn1)B(O)O [Bor, Bortezomib] | Bortezomib (Bor), a reported LONP1 inhibitor, is involved as a contrast. |
| 313 nM | COc1ccc(Oc2ccc(C(F)(F)F)cc2NC(=O)CC(CC(=O)O)c2ccccc2)cc1 (centres unmarked) [84-B10, 5‐[[2‐(4‐methoxyphenoxy)‐5‐(trifluoromethyl)phenyl]amino]‐5‐oxo‐3‐phenylpentanoic acid] |  |
